Active and inactive are the calls of the source.
Key:
fMet-Leu-Phe receptor = target: T1, fMet-Leu-Phe receptor (Homo sapiens, UniProt P21462); assay: FPR ligands, dose response (AID 519); assay type: functional
T1 sequence (P21462 whole entry): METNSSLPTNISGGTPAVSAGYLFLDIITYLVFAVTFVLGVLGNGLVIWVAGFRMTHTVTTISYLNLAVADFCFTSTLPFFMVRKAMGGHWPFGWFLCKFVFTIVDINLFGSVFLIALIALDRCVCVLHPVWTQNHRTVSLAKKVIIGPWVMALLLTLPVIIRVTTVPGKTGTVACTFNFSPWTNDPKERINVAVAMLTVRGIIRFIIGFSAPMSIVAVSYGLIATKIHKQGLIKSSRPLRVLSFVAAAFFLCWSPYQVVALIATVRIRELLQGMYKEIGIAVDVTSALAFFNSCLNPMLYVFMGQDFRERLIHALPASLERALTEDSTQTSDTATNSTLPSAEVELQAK

[1] = target: T2, Probable nicotinate-nucleotide adenylyltransferase (Staphylococcus aureus (strain N315), UniProt P65502); assay type: functional, Staphylococcus aureus subsp. aureus N315;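 for IC50 Mean: confirmatory dose-response retesting of NadD inhibitor hits first found in an ultra-high-throughput screen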
T2 sequence (P65502 whole entry): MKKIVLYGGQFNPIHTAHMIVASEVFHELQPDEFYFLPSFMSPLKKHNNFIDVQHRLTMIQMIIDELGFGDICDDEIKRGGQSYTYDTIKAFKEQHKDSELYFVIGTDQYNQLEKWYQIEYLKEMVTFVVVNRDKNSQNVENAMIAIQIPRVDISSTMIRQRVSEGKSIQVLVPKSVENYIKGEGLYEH

[2] = target: T2, Probable nicotinate-nucleotide adenylyltransferase; assay type: functional, Staphylococcus aureus subsp. aureus N315; details: read-out: IC50_Mean
Interleukin-8 [3] = target: T3, Interleukin-8 (Homo sapiens, UniProt P10145); assay: Dose Response confirmation of uHTS small molecule hits for cystic fibrosis induced NFkb Inhibitors in a PAF-induced IL8 counterscreen.; assay type: functional; details: read-out: IC50_Mean
T3 sequence (P10145 whole entry): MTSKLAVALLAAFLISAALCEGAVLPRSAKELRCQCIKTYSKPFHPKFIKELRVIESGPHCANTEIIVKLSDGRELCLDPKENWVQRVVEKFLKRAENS

[4] = target: T4, Heat shock factor protein 1 (Mus musculus, UniProt P38532); assay: inhibition of MG132-induced HSE-luciferase signal, confirmation, cell-based, NIH3T3, luminescence, dose retest (AID 2382); assay type: functional;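 note: NIH3T3 fibroblasts with HSF1-driven luciferase reporter stressed by proteasome inhibitor MG132; luminescence from HSF1-driven luciferase expression after 8 hours of MG132 stress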
T4 sequence (P38532 whole entry): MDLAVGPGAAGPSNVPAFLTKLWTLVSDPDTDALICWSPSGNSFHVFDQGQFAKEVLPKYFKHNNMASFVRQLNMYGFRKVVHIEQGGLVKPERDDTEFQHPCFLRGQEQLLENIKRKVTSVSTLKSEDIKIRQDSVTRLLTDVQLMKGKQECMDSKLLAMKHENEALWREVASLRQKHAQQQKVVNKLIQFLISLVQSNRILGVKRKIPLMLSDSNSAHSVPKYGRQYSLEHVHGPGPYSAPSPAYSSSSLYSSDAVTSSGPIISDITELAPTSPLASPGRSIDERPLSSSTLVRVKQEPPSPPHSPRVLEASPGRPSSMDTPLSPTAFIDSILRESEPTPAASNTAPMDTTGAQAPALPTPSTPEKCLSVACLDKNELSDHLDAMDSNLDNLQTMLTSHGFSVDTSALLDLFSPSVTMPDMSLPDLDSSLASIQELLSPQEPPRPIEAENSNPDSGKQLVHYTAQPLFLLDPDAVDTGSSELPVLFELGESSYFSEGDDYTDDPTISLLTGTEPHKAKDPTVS

Interleukin-8 [5] = target: T3, Interleukin-8; assay: Dose Response confirmation of uHTS small molecule hits for cystic fibrosis induced NFkb Inhibitors in a TNFa-induced IL8 counterscreen.; assay type: functional; details: read-out: IC50_Mean
HEK293 = assay: inhibitors of LMP1-driven NF-kB reporter, dose response, cell-based, HEK293, luciferase, cherry-pick (AID 588343); assay type: functional, Homo sapiens; details: Homo sapiens, HEK293
Kallikrein-7 = Kallikrein-7 (Homo sapiens, UniProt P49862); assay: Fluorescence Intensity-based biochemical primary high throughput dose response assay to identify activators of kallikrein-7 (K7) zymogen.
Sequence of Kallikrein-7 (P49862 whole entry): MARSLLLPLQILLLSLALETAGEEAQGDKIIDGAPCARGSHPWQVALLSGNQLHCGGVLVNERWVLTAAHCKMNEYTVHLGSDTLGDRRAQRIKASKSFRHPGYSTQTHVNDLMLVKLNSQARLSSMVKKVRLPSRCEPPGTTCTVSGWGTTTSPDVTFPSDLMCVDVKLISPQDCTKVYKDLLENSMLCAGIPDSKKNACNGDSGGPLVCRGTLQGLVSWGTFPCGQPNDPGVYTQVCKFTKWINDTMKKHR

[6] = target: T5, Corticotropin-releasing factor receptor 2/Corticotropin-releasing factor-binding protein (Homo sapiens, UniProt P24387+Q13324); assay: activators of CRF receptor 2 with binding protein – uHTS hits, confirmation (AID 602473); assay type: functional; details: read-out: EC50_Mean
T5 sequence (Q13324 whole entry): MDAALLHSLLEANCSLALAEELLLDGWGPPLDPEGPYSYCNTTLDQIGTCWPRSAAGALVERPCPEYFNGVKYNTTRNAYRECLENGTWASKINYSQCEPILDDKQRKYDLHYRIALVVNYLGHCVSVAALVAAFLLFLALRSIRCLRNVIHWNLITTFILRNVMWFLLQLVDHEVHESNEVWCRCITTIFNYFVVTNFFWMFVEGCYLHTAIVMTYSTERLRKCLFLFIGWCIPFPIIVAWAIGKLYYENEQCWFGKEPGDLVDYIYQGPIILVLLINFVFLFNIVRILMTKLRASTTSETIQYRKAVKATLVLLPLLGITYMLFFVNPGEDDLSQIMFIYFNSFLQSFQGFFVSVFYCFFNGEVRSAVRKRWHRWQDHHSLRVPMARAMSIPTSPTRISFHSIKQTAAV
T5 sequence (P24387 whole entry): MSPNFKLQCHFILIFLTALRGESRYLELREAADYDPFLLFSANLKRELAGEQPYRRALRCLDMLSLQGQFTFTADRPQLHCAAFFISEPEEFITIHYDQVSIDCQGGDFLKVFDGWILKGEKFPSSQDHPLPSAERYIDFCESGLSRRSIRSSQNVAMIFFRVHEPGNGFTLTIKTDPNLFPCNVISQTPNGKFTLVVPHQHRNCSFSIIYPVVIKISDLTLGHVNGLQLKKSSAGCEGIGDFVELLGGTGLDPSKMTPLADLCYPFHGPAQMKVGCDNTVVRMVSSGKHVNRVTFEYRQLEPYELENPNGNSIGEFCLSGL

Beta-galactosidase = Beta-galactosidase (Escherichia coli, UniProt Q8VNN2); assay: Dose response counterscreen for EBI2 assay utilizing the enzyme, b-galactosidase.; assay type: functional
Sequence of Beta-galactosidase (Q8VNN2 whole entry): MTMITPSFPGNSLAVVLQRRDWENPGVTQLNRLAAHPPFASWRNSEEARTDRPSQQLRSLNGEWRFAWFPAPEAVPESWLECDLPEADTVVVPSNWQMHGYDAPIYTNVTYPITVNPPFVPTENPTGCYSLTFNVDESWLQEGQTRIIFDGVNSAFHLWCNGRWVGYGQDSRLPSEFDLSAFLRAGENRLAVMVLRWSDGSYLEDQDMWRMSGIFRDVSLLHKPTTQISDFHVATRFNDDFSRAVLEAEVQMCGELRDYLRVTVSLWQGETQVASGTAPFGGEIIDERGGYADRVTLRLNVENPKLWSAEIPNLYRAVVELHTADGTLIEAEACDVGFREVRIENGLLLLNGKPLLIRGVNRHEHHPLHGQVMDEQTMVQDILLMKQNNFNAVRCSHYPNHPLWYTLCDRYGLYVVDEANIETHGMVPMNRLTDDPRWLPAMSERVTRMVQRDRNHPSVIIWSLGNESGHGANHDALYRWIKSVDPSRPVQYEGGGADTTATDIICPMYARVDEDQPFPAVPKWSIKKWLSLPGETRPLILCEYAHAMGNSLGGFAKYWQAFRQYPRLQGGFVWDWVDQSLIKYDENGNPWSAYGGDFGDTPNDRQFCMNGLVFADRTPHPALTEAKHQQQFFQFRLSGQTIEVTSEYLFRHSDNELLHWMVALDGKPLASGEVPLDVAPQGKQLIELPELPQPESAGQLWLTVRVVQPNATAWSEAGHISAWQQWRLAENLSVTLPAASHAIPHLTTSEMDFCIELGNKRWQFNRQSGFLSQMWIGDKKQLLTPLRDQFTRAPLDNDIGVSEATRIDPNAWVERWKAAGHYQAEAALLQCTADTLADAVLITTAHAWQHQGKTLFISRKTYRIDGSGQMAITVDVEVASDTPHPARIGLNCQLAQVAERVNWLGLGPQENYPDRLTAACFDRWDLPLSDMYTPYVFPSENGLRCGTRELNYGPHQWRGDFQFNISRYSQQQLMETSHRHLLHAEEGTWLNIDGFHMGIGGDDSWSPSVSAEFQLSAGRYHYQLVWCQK

[7] = HeLa cell cytotoxicity, dose response, cytotoxicity control for MgcRacGAP inhibitor project (AID 624300); assay type: functional
Cytochrome P450 2D6 = Cytochrome P450 2D6 (Homo sapiens, UniProt P10635);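 note: CYP2D6 member of a cytochrome P450 panel assay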
Sequence of Cytochrome P450 2D6 (P10635 whole entry): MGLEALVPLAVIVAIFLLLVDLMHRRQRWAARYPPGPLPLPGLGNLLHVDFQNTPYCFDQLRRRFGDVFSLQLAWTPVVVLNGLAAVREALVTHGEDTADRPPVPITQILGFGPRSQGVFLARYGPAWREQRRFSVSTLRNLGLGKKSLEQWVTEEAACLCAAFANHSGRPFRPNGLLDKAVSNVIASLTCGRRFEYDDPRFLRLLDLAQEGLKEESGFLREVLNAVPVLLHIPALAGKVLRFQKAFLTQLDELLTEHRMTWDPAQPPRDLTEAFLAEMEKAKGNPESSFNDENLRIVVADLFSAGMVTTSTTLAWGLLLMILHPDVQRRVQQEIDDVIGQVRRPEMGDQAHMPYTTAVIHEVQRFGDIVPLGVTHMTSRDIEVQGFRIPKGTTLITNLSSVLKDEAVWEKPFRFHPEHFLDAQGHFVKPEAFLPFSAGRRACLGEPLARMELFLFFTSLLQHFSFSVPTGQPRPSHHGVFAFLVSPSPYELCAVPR

[8] = HEp-2 cell cytotoxicity, dose response, cytotoxicity control for RSV inhibitor project, HTS (AID 2410); assay type: functional; details: human respiratory syncytial virus
Galanin receptor type 3 = target: T6, Galanin receptor type 3 (Homo sapiens, UniProt O60755); assay: Fluorescence-based cell-based primary high throughput dose response assay to identify antagonists of the Galanin Receptor 3 (GalR3).; assay type: functional
T6 sequence (O60755 whole entry): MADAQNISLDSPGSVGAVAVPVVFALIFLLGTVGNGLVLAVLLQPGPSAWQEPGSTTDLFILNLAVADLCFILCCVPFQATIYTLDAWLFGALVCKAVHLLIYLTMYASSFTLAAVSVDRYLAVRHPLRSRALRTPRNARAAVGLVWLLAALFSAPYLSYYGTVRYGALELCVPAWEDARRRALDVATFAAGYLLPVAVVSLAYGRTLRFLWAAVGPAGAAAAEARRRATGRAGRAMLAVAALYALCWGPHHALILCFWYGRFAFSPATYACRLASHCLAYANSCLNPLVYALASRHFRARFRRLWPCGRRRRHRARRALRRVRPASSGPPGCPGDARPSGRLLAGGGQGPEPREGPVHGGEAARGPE

cells = assay type: functional, cell-based; details: HEK-CNG
[9] = target: T7, Methionyl-tRNA synthetase, putative (Trypanosoma brucei brucei, UniProt Q38C91); assay type: functional, Trypanosoma brucei brucei strain 927/4 GUTat10.1
T7 sequence (Q38C91 whole entry): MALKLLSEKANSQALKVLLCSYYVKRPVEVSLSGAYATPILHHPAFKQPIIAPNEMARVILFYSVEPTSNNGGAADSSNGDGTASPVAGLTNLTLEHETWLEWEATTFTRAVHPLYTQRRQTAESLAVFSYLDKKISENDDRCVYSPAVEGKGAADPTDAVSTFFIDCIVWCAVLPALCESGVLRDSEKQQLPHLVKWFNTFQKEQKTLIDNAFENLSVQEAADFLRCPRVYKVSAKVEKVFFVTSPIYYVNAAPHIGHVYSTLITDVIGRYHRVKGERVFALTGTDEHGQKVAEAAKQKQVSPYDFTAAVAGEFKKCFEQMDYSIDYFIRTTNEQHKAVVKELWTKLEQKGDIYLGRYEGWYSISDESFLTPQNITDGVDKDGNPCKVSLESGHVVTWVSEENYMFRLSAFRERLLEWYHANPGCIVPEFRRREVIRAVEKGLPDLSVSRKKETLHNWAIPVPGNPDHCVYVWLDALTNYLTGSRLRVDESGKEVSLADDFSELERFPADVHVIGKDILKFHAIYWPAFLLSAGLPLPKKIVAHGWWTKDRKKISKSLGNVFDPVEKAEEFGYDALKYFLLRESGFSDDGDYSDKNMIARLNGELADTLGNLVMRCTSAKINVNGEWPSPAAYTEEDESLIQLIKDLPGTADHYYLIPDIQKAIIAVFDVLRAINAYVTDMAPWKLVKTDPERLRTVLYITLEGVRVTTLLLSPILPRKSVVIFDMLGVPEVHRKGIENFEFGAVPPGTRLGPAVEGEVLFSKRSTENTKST

[10] = target: T7, Methionyl-tRNA synthetase, putative; assay type: functional, Trypanosoma brucei brucei strain 927/4 GUTat10.1; remark: listed apart in the source
[11] = Counterscreen for inhibitors of Trypanosoma brucei methionyl tRNA synthetase (MetRS): Luminescence-based cell-based high throughput dose response assay to identify compounds that are cytotoxic to Jurkat human T lymphocyte cells.; assay type: functional
[12] = inhibitors of PGC1a acetylation in cells, dose response, cell-based, cherry-picked samples (AID 720514); assay type: functional;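 note: potency may reflect raised or lowered acetylation signal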
[13] = target: FAD-linked sulfhydryl oxidase ALR (Homo sapiens, UniProt P55789); assay: inhibitors of human ALR sulfhydryl oxidase, dose response, biochemical, H2O2 detection, luminescence, cherry-pick (AID 493248)
Sequence of FAD-linked sulfhydryl oxidase ALR (P55789 whole entry): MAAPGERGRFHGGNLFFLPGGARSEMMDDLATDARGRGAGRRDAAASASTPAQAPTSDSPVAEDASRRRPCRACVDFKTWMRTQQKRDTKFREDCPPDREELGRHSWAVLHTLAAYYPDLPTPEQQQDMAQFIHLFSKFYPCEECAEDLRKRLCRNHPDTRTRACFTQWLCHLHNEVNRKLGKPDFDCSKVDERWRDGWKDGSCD

[14] = target: T8, Rac GTPase-activating protein 1 (Homo sapiens, UniProt Q9H0H5); assay: MgcRacGAP GTPase-activating activity inhibitors, confirmation, biochemical, ADP Hunter fluorescence, primary and confirmatory (AID 624330); assay type: functional
T8 sequence (Q9H0H5 whole entry): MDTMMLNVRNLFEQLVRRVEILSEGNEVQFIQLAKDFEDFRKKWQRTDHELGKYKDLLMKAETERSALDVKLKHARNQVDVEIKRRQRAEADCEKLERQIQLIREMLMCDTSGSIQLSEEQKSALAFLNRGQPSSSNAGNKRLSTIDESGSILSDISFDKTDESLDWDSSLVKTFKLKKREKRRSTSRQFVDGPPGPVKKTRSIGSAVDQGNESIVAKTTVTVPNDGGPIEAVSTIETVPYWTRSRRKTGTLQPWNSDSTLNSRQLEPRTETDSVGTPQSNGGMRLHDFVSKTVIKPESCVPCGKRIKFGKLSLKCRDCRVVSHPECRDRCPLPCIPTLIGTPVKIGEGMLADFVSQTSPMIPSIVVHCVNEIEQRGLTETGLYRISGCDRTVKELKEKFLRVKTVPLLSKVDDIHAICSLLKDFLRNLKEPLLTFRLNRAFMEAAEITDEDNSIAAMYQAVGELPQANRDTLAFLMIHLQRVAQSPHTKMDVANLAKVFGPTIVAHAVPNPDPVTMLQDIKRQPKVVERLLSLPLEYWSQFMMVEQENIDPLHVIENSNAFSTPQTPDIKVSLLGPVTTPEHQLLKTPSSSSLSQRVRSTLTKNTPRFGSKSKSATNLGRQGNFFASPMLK

Compound: Cc1cccc(-n2nc3c(c2NC(=O)c2ccco2)CSC3)c1C
- Ki (fMet-Leu-Phe receptor): 22.9 µM (inactive)
- IC50 [1]: 8.29 µM (active)
- IC50 [2]: 17.8 µM (active)

Compound: CCCCN(c1ccccc1)c1ncnc(N)c1[N+](=O)[O-]
- IC50 (Interleukin-8 [3]): > 79 µM (inactive)
- EC50 [4]: 8.33 µM (active)
- IC50 (Interleukin-8 [5]): 39.7 µM (inactive)
- AC50 (HEK293): 14.3 µM (active)

Compound: CCN1CCSc2ccc(C(=O)NCc3ccccc3F)cc21
- EC50 (Kallikrein-7): > 69.5 µM (inactive)
- EC50 [6]: > 53 µM (inactive)

Compound: CN=C(S)N1N=C(c2ccc(C)cc2)CC1c1ccc(Cl)cc1 (configuration not stated)
- IC50 (Beta-galactosidase): > 80 µM (inactive)

Compound: CC(C)N(c1ccccc1)c1ccc(NC(S)=NCCN(C)C)cc1
- CC50 [7]: 100 µM (active)

Compound: CN=C(S)N1N=C(c2ccc(C)cc2)CC1c1ccc(Br)cc1 (configuration not stated)
- IC50 (Beta-galactosidase): > 80 µM (inactive)

Compound: c1cncc(CNc2ncnc3ccc(-c4ccoc4)cc23)c1
- IC50 (Interleukin-8 [3]): 6.44 µM (active)
- IC50 (Interleukin-8 [5]): > 79 µM (inactive)
- AC50 (Cytochrome P450 2D6): 25.1 µM (inconclusive)
- AC50 (HEK293): 5.33 µM (active)

Compound: CCN(CC)c1ccc2c(C)c(CO)c(=O)oc2c1
- CC50 [8]: > 50 µM (active)
- EC50 (Kallikrein-7): 6.34 µM (active)

Compound: CCCCC[C@H](O)/C=C/[C@H]1CCC(=O)[C@@H]1CCCCCCC(=O)N1CCCCC1CO (some centres not stated)
- IC50 (Galanin receptor type 3): 3.54 µM (active)
- EC50 (cells): > 29.9 µM (inactive)

Compound: CC(=O)NS(=O)(=O)c1ccc(NC(=O)/C=C/c2cn(-c3ccccc3)nc2-c2ccccc2)cc1
- IC50 [9]: 12 µM (inactive)
- IC50 [10]: 49.8 µM (inactive)
- IC50 [11]: 83.3 µM (inactive)

Compound: CCOC(=O)c1cnc2c(C(=O)OC)cccc2c1NCc1ccco1
- EC50 (Kallikrein-7): > 69.5 µM (inactive)

Compound: O=C(/C=C/c1cccs1)N1CCC2(CC1)Oc1ccc(Cl)cc1C(=O)C21CC(c2ccccc2)=NO1 (configuration not stated)
- IC50 (Beta-galactosidase): > 80 µM (inactive)

Compound: CC(C)CC#Cc1ccc([C@H]2[C@H](CO)N3C(=O)CN(C(=O)Nc4cc(F)ccc4F)C[C@@H]23)cc1
- AC50 [12]: 27.6 µM (active)

Compound: COc1cc(/C=N/Nc2nc3ccccc3[nH]2)ccc1O
- IC50 [9]: 102 µM (inactive)
- AC50 [13]: 1.16 µM (active)
- IC50 [10]: 23.7 µM (inactive)
- CC50 [7]: 100 µM (active)
- IC50 [14]: 14 µM (active)
- IC50 [11]: 83.3 µM (inactive)

— ChEMBL document CHEMBL1201862, “PubChem BioAssay data set” (2004)
